Assay results as given in patent publication US11014911B2, “CDK2 inhibitors” (Pfizer Inc., priority 2019, dated 2021).

Experiments:
[1] = biological target: GSK3β (H350L) (Homo sapiens (Human), UniProt P49841); conditions: read-out: GSK3β Ki
Description: The assay was initiated with the addition of ATP, following 15 minutes pre-incubation of enzyme and inhibitor at room temperature in the reaction mixture. The reaction was stopped after 30 minutes at room temperature by the addition of 50 μL of 80 mM EDTA.

[2] = biological target: CDK2/Cyclin E1 full length (Homo sapiens (Human), UniProt P24941); assay: CDK2/Cyclin E1 full length mobility shift assay; format: biochemical

Sequence of GSK3β (H350L) (P49841 whole entry, stated change not applied): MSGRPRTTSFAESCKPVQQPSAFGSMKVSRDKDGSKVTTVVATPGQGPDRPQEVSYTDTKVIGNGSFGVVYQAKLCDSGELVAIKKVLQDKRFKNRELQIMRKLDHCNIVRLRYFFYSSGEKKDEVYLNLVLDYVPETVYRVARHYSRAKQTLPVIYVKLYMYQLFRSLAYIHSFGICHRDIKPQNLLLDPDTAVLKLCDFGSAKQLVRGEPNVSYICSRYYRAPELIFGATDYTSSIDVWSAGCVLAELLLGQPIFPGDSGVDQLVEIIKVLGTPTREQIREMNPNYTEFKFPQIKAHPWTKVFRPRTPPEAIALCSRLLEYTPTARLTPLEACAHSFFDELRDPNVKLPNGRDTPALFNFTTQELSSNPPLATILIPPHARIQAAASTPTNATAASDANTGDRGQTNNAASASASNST

Row | Ki [1] | Ki [2] | SMILES
1 | > 47.6 nM | 0.47 nM | COCc1cc(C(=O)Nc2cc([C@H]3CC[C@@H](OC(=O)N[C@H](C)C4CC4)C3)[nH]n2)n(C)n1 [Example 105]
2 | 13.5 nM | 0.54 nM | CCCNC(=O)O[C@@H]1CC[C@H](c2cc(NC(=O)Cc3cncs3)n[nH]2)C1 [Example 179, (1R,3S)-3-{3-[(1,3-thiazol-5-ylacetyl)amino]-1H-pyrazol-5-yl}cyclopentyl propylcarbamate]
3 | 6.87 nM | 0.25 nM | Cc1cnc(CC(=O)Nc2cc([C@H]3CC[C@@H](OC(=O)N4CCC4(C)C)C3)[nH]n2)o1 [Example 147]
4 | 2.77 nM | 0.36 nM | COc1ccc(CC(=O)Nc2cc([C@H]3CC[C@@H](OC(=O)N4C[C@@H](OC)[C@@H]4C)C3)[nH]n2)cn1 [Example 621, (1R,3S)-3-(3-{[(6-methoxypyridin-3-yl)acetyl]amino}-1H-pyrazol-5-yl)cyclopentyl (2S,3R)-3-methoxy-2-methylazetidine-1-carboxylate]
5 | 2.28 nM | 1.08 nM | COc1ccc(CC(=O)Nc2cc([C@@H]3CC[C@H](OC(=O)N[C@H]4CC[C@](C)(O)CC4)C3)[nH]n2)cn1 [Example 571, (1S,3R)-3-(3-{[(6-methoxypyridin-3-yl)acetyl]amino}-1H-pyrazol-5-yl)cyclopentyl (trans-4-hydroxy-4-methylcyclohexyl)carbamate]
6 | 12.5 nM | 0.22 nM | CC[C@H](C)NC(=O)O[C@@H]1CC[C@H](c2cc(NC(=O)Cc3ccc(C)nc3)n[nH]2)C1 [Example 35]
7 | 12.7 nM | 0.36 nM | Cc1cc(CC(=O)Nc2cc([C@H]3CC[C@@H](OC(=O)N4CCC[C@@H]4C)C3)[nH]n2)on1 [Example 632, (1R,3S)-3-(3-{[(3-methyl-1,2-oxazol-5-yl)acetyl]amino}-1H-pyrazol-5-yl)cyclopentyl (2S)-2-methylpyrrolidine-1-carboxylate]
8 | 13.9 nM | 1.67 nM | COc1cc(CC(=O)Nc2cc([C@@H]3CC[C@H](OC(=O)N4C[C@H](O)[C@H]4C)C3)[nH]n2)ccn1 [Example 611, (1S,3R)-3-(3-{[(2-methoxypyridin-4-yl)acetyl]amino}-1H-pyrazol-5-yl)cyclopentyl (2R,3S)-3-hydroxy-2-methylazetidine-1-carboxylate]
9 | 11.8 nM |  | C[C@H]1CCCN1C(=O)O[C@@H]1CC[C@H](c2cc(NC(=O)Cc3ccn(C)n3)n[nH]2)C1 [Example 631, (1R,3S)-3-(3-{[(1-methyl-1H-pyrazol-3-yl)acetyl]amino}-1H-pyrazol-5-yl)cyclopentyl (2S)-2-methylpyrrolidine-1-carboxylate]
10 |  | 1.6 nM | O=C(Cc1cc(F)cc(F)c1)Nc1cc([C@H]2CC[C@@H](OC(=O)NC3CCOCC3)C2)[nH]n1 [Example 505, (1R,3S)-3-(3-{[(3,5-difluorophenyl)acetyl]amino}-1H-pyrazol-5-yl)cyclopentyl tetrahydro-2H-pyran-4-ylcarbamate]
11 |  | 0.41 nM | CCCNC(=O)O[C@H]1CC[C@@H](c2cc(NC(=O)Cc3cc(OC)ncc3O)n[nH]2)C1 [Example 193, (1S,3R)-3-(3-{[(5-hydroxy-2-methoxypyridin-4-yl)acetyl]amino}-1H-pyrazol-5-yl)cyclopentyl propylcarbamate]
12 |  | 2.77 nM | C[C@@H]1CCN1C(=O)O[C@@H]1CC[C@H](c2cc(NC(=O)Cc3cnn(C)c3)n[nH]2)C1 [Example 587, (1R,3S)-3-(3-{[(1-methyl-1H-pyrazol-4-yl)acetyl]amino}-1H-pyrazol-5-yl)cyclopentyl (2R)-2-methylazetidine-1-carboxylate]
13 |  | 3.11 nM | C[C@H](F)[C@H](C)NC(=O)O[C@@H]1CC[C@H](c2cc(NC(=O)Cc3cnn(C)c3)n[nH]2)C1 (single isomer, unassigned) [Example 381, (1R,3S)-3-(3-{[(1-methyl-1H-pyrazol-4-yl)acetyl]amino}-1H-pyrazol-5-yl)cyclopentyl [(2S*,3S*)-3-fluorobutan-2-yl]carbamate]
14 |  | 1.38 nM | CCC1CCN1C(=O)O[C@@H]1CC[C@H](c2cc(NC(=O)Cc3ncc(C)o3)n[nH]2)C1 (single isomer, unassigned) [Example 599]
15 | 15.3 nM |  | C[C@H]1CCCN1C(=O)O[C@@H]1CC[C@H](c2cc(NC(=O)Cc3ccn(C)n3)n[nH]2)C1 [Example 140]

Row | SMILES | Ki [1] | Ki [2]
16 | Cc1ncc(CC(=O)Nc2cc([C@@H]3CC[C@H](OC(=O)N[C@H]4CC[C@@H](O)CC4)C3)[nH]n2)s1 [Example 550, (1S,3R)-3-(3-{[(2-methyl-1,3-thiazol-5-yl)acetyl]amino}-1H-pyrazol-5-yl)cyclopentyl (cis-4-hydroxycyclohexyl)carbamate] | 3.12 nM | 0.36 nM
17 | Cc1cnc(CC(=O)Nc2cc([C@H]3CC[C@@H](OC(=O)NC4(CC(F)(F)F)CC4)C3)[nH]n2)cn1 [Example 455, (1R,3S)-3-(3-{[(5-methylpyrazin-2-yl)acetyl]amino}-1H-pyrazol-5-yl)cyclopentyl [1-2,2,2-trifluoroethyl)cyclopropyl] carbamate] | 21.3 nM | 0.47 nM
18 | CC1(NC(=O)O[C@@H]2CC[C@H](c3cc(NC(=O)Cc4ccc(Cl)cn4)n[nH]3)C2)CC1 [Example 437, (1R,3S)-3-(3-{[(5-chloropyridin-2-yl)acetyl]amino}-1H-pyrazol-5-yl)cyclopentyl (1-methylcyclopropyl)carbamate] | 15.9 nM | 0.51 nM
19 | CC[C@H](C)NC(=O)O[C@@H]1CC[C@H](c2cc(NC(=O)Cc3ccccc3S(C)(=O)=O)n[nH]2)C1 [Example 370, (1R,3S)-3-[3-({[2-(methylsulfonyl)phenyl]acetyl}amino)-1H-pyrazol-5-yl]cyclopentyl (2S)-butan-2-ylcarbamate] | 50.8 nM | 
20 | CCCNC(=O)O[C@H]1CC[C@@H](c2cc(NC(=O)Cc3ccnc(OC)c3)n[nH]2)C1 [Example 19] | 20.8 nM | 
21 | COc1ccc(CC(=O)Nc2cc([C@@H]3CC[C@H](OC(=O)N4CCC4(C)C)C3)[nH]n2)cn1 [Example 145] | 0.95 nM | 
22 | Cc1coc(CC(=O)Nc2cc([C@H]3CC[C@@H](OC(=O)NC4(C)CC4)C3)[nH]n2)n1 [Example 422, (1R,3S)-3-(3-{[(4-methyl-1,3-oxazol-2-yl)acetyl]amino}-1H-pyrazol-5-yl)cyclopentyl (1-methylcyclopropyl)carbamate] |  | 0.55 nM
23 | COc1cc(CC(=O)Nc2cc([C@H]3CC[C@@H](OC(=O)N[C@@H](C)[C@H](C)F)C3)[nH]n2)ccn1 (single isomer, unassigned) [Example 384, (1R,3S)-3-(3-{[(2-methoxypyridin-4-yl)acetyl]amino}-1H-pyrazol-5-yl)cyclopentyl [(2S*,3S*)-3-fluorobutan-2-yl]carbamate] |  | 1.24 nM
24 | Cc1ccc(F)c(CC(=O)Nc2cc([C@H]3CC[C@@H](OC(=O)NC4(C)CC4)C3)[nH]n2)n1 [Example 435, (1R,3S)-3-(3-{[(3-fluoro-6-methylpyridin-2-yl)acetyl]amino}-1H-pyrazol-5-yl)cyclopentyl (1-methylcyclopropyl)carbamate] |  | 1.49 nM
25 | CCCNC(=O)O[C@@H]1CC[C@H](c2cc(NC(=O)Cc3ccnc(OC)c3)[nH]n2)C1 [Example 1, (1R,3S)-3-(3-{[(2-methoxypyridin-4-yl)acetyl]amino}-1H-pyrazol-5-yl)cyclopentyl propylcarbamate] | 26.2 nM | 
26 | COc1cnc(CC(=O)Nc2cc([C@H]3CC[C@@H](OC(=O)N[C@@H](C)C4CC4)C3)[nH]n2)cn1 [Example 106] |  | 0.76 nM
